Assay results published in patent US4307097A, “Method of reducing increased intracranial pressure” (Tanabe Seiyaku Co., Ltd., priority 1979, dated 1981).

What was measured:
[1] = tested on: intracranial pressure; assay: Effect of i.v. injection of test compounds on intracranial pressure in rats; type: in vivo, rat (male SD-strain); details: rat, 0 minute = 100
From the text: Male SD-strain rats weighing 500 to 800 g (each group consisting of 5 rats) were anesthetized with urethane. […] Intracranial pressure (i.e., cerebrospinal fluid pressure in the cisterna magna) was continuously monitored via a cannula inserted in the cisterna magna. The cannula was connected to a transducer, and recordings were made on graph paper.

[2] = tested on: intracranial pressure; assay: Effect of p.o. administration of test compounds on intracranial pressure in rats; type: in vivo, rat (male SD-strain); details: rat, 8 mg/kg, 240 minutes, 0 minute = 100
Method: Male SD-strain rats weighing 500 to 800 g (each group consisting of 5 rats) were fasted for about 20 hours, and anesthetized with urethane. A suspension of a test compound in aqueous 0.5 w/v % carboxymethyl-cellulosewas administered orally to the rats. Then, the effect of the compound on the intracranial pressure was estimated in the same manner as described in Example 1.
Compound 4 (free base) listed in Example 1 was used in this experiment.

[3] = Acute toxicity; details: in vivo, mouse, observed for a week
Method: The 50% lethal dose (LD50) of the test compound was calculated according to the Weil's method from the number of mice died a week after the administration.

[4] = Therapeutic index (ratio of LD50 to minimum effective dose); type: in vivo; details: orally or intravenously
From the text: Unlike the hypertonic solutions of glycerol or mannitol, the therapeutic effect of the propanol derivative (I) of the present invention is not ascribable to the cerebral dehydrating effect and, therefore, said derivative (I) can be used either orally or parenterally. The propanol derivative (I) may also be used for the treatment of prophylaxis of increased intracranial pressure during and after brain surgical operation. Moreover, the propanol derivative (I) may be used for improving impaired consciousness, nervous disturbance and subjective symptoms (e.g., headache, nausea, vomiting) which are attributed to the cerebral diseases such as those mentioned hereinbefore. Further, whereas it is known that cerebral edema induces a rise in intracranial pressure and increased intracranial pressure serves to cause a build-up of edema which in turn impairs cerebral circulation, the propanol derivative (I) can interrupt this vicious cycle of cerebral diseases because of its potent intracranial pressure-lowering effect and its ability to ameliorate the cerebral circulatory impairment. The toxicity of the propanol derivative (I) of the present invention is low.

[5] = tested on: increased intracranial pressure; assay: Effect of i.v. injection on increased intracranial pressure (autologous blood injected into the brain) in rats; type: in vivo, rat (male SD-strain); details: rat, 0 minute = 100
Method: Male SD-strain rats weighing 500 to 800 g (each group consisting of 5 rats) were anesthetized with urethane. 0.03 ml of autologous blood were injected into the brain of the rats to induce an increase in intracranial pressure. The level of increased intracranial pressure in the rats was about twice as high as its initial level 120 to 180 minutes after injection of autologous blood and said increased intracranial pressure was maintained at an approximately same level thereafter. 180 minutes after injection of autologous blood, a solution of a test compound in an aqueous 5 w/v % mannitol solution was infused via the femoral vein of the rats at a rate of 0.2 ml/kg/minute for 40 minutes. Then, the effect of the test compound on the intracranial pressure was calculated according to the following formula: [formula]
Compound No. 4 listed in Example 1 was used in this experiment.

[6] = tested on: intracranial pressure; assay: Effect of i.v. injection of test compounds on intracranial pressure in beagle dogs; type: in vivo, beagle dog (male); details: beagle dog, 1.0 mg/kg, 0 minute = 100
Method: A solution of a test compound in an aqueous 5 w/v % mannitol solution was infused via the saphenous vein of the beagle dogs at a rate of 0.1 ml/kg/minute for 40 minutes.

[7] = tested on: increased intracranial pressure; assay: Effect of i.v. injection on increased intracranial pressure (autologous blood injected into the lateral ventricle) in rabbits; type: in vivo, rabbit (male); details: rabbit, 0 minute = 100
Method: Male rabbits weighing 2.8 to 3.2 kg (each group consisting of 6 rabbits) were anethetized with urethane. 0.1 to 0.2 ml of autologous blood were injected into the lateral ventricle of the rabbits to induce a rise in intracranial pressure. The level of intracranial pressure was about 2.3 times as high as its initial level 150 to 180 minutes after injection of autologous blood. 180 minutes after injection of autologous blood, a solution of a test compound in an aqueous 10 w/v % maltose solution was administered intravenously to the rabbits at a rate of 0.1 ml/kg/minute for 20 minutes. Then, the effect of the test compound on the intracranial pressure was calculated in the same manner as described in Example 2. [The initial intracranial pressure (i.e., the normal intracranial pressure measured before injection of autologous blood) was 75±2.6 mm H2 O, and the intracranial pressure measured before administration of test compound was 176±16 mm H2 O.]
Compound 4 listed in Example 1 was used in this experiment.

[8] = tested on: common carotid blood flow; assay: Effect of test compounds on common carotid blood flow in cats; type: in vivo; details: cat, right thyroid artery, 30 seconds after administration, baseline 24.1 ± 0.9 ml/minute
Method: A solution of a test compound in an aqueous 10 w/v % maltose solution was injected into the right thyroid artery of the cats. The common carotid artery blood flow was continuously monitored via the flow probe set at the common carotid artery. The flow probe was connected to an electromagnetic flow meter, and recordings were made on graph paper. The effect of the test compound on the common carotid blood flow was estimated 30 seconds after administration of the test compound.

Compound: COc1cc(NC(C)=O)ccc1OCC(O)CN1CCN(c2ccccc2)CC1 (centres unmarked) [Compound 1, 1-(4-acetamido-2-methoxyphenoxy)-3-(4-phenylpiperazino)-2-propanol]
- Changes in intracranial pressure ([1]; 1.0 mg/kg, 40 minutes): 81.4%
- Changes in intracranial pressure ([1]; 1.0 mg/kg, 60 minutes): 85.5%
- Changes in intracranial pressure ([1]; 1.0 mg/kg, 120 minutes): 91.7%
- Changes in intracranial pressure ([1]; 1.0 mg/kg, 180 minutes): 92.8%

Compound: COc1cc(NC(C)=O)ccc1OCC(O)CN1CCN(c2ccccc2C)CC1 (centres unmarked) [Compound 2, 1-(4-acetamido-2-methoxyphenoxy)-3-[4-(2-methylphenyl)piperazino]-2-propanol]
- Changes in intracranial pressure ([1]; 1.0 mg/kg, 40 minutes): 90.5%
- Changes in intracranial pressure ([1]; 1.0 mg/kg, 60 minutes): 90.7%
- Changes in intracranial pressure ([1]; 1.0 mg/kg, 120 minutes): 90.1%
- Changes in intracranial pressure ([1]; 1.0 mg/kg, 180 minutes): 91.5%

Compound: COc1cc(NC(C)=O)ccc1OCC(O)CN1CCN(c2ccccc2Cl)CC1 (centres unmarked) [Compound 3, 1-(4-acetamido-2-methoxyphenoxy)-3-[4-(2-chlorophenyl)piperazino]-2-propanol]
- Changes in intracranial pressure ([1]; 1.0 mg/kg, 40 minutes): 92.4%
- Changes in intracranial pressure ([1]; 1.0 mg/kg, 60 minutes): 87.5%
- Changes in intracranial pressure ([1]; 1.0 mg/kg, 120 minutes): 85.3%
- Changes in intracranial pressure ([1]; 1.0 mg/kg, 180 minutes): 85.0%

Compound: COc1cc(NC(C)=O)ccc1OCC(O)CN1CCN(c2cccc(F)c2)CC1 (centres unmarked) [Compound 4 (free base), 1-(4-acetamido-2-methoxyphenoxy)-3-[4-(3-fluorophenyl)piperazino]-2-propanol]
- Changes in intracranial pressure [2]: 75.6%
- LD50 at 168 h ([3]; po): 1550 mg/kg
- therapeutic index (50% lethal dose / minimum effective dose) [4]: not less than 400

Compound: COc1cc(NC(C)=O)ccc1OCC(O)CN1CCN(c2cccc(F)c2)CC1.Cl (centres unmarked) [Compound 4, 1-(4-acetamido-2-methoxyphenoxy)-3-[4-(3-fluorophenyl)piperazino]-2-propanol hydrochloride]
- Changes in intracranial pressure ([1]; 0.5 mg/kg, 40 minutes): 84.3%
- Changes in intracranial pressure ([1]; 0.5 mg/kg, 60 minutes): 80.5%
- Changes in intracranial pressure ([1]; 0.5 mg/kg, 120 minutes): 86.5%
- Changes in intracranial pressure ([1]; 0.5 mg/kg, 180 minutes): 86.7%
- Changes in intracranial pressure ([1]; 1.0 mg/kg, 40 minutes): 82.6%
- Changes in intracranial pressure ([1]; 1.0 mg/kg, 60 minutes): 78.1%
- Changes in intracranial pressure ([1]; 1.0 mg/kg, 120 minutes): 82.2%
- Changes in intracranial pressure ([1]; 1.0 mg/kg, 180 minutes): 85.2%
- Changes in intracranial pressure ([1]; 2.0 mg/kg, 40 minutes): 81.5%
- Changes in intracranial pressure ([1]; 2.0 mg/kg, 60 minutes): 72.5%
- Changes in intracranial pressure ([1]; 2.0 mg/kg, 120 minutes): 74.6%
- Changes in intracranial pressure ([1]; 2.0 mg/kg, 180 minutes): 78.9%
- Changes in intracranial pressure ([5]; 0.5 mg/kg, 40 minutes): 68.0%
- Changes in intracranial pressure ([5]; 0.5 mg/kg, 60 minutes): 65.4%
- Changes in intracranial pressure ([5]; 0.5 mg/kg, 120 minutes): 74.6%
- Changes in intracranial pressure ([5]; 0.5 mg/kg, 180 minutes): 76.0%
- Changes in intracranial pressure ([5]; 1.0 mg/kg, 40 minutes): 56.7%
- Changes in intracranial pressure ([5]; 1.0 mg/kg, 60 minutes): 60.9%
- Changes in intracranial pressure ([5]; 1.0 mg/kg, 120 minutes): 59.2%
- Changes in intracranial pressure ([5]; 1.0 mg/kg, 180 minutes): 60.6%
- Changes in intracranial pressure ([6]; 40 minutes): 80.3%
- Changes in intracranial pressure ([6]; 60 minutes): 75.6%
- Changes in intracranial pressure ([6]; 120 minutes): 82.5%
- Changes in intracranial pressure ([6]; 180 minutes): 83.1%
- Changes in intracranial pressure ([7]; 1 mg/kg, 20 minutes): 96.4%
- Changes in intracranial pressure ([7]; 1 mg/kg, 60 minutes): 91.7%
- Changes in intracranial pressure ([7]; 1 mg/kg, 120 minutes): 82.1%
- Changes in intracranial pressure ([7]; 1 mg/kg, 180 minutes): 94.0%
- Changes in intracranial pressure ([7]; 1 mg/kg, 240 minutes): 91.7%
- Changes in intracranial pressure ([7]; 1 mg/kg, 300 minutes): 91.7%
- Changes in intracranial pressure ([7]; 2 mg/kg, 20 minutes): 89.5%
- Changes in intracranial pressure ([7]; 2 mg/kg, 60 minutes): 77.1%
- Changes in intracranial pressure ([7]; 2 mg/kg, 120 minutes): 68.6%
- Changes in intracranial pressure ([7]; 2 mg/kg, 180 minutes): 63.8%
- Changes in intracranial pressure ([7]; 2 mg/kg, 240 minutes): 65.7%
- Changes in intracranial pressure ([7]; 2 mg/kg, 300 minutes): 63.8%
- Increase in common carotid blood flow ([8]; 1 μg/kg): 3.5 ± 0.8 Δml/minute
- Increase in common carotid blood flow ([8]; 5 μg/kg): 6.1 ± 0.6 Δml/minute
- Increase in common carotid blood flow ([8]; 10 μg/kg): 8.8 ± 1.3 Δml/minute
- LD50 at 168 h ([3]; iv): 280 mg/kg

Compound: COc1cc(NC(C)=O)ccc1OCC(O)CN1CCN(c2ccccc2F)CC1 (centres unmarked) [Compound 5, 1-(4-acetamido-2-methoxyphenoxy)-3-[4-(2-fluorophenyl)piperazino]-2-propanol]
- Changes in intracranial pressure ([1]; 1.0 mg/kg, 40 minutes): 84.0%
- Changes in intracranial pressure ([1]; 1.0 mg/kg, 60 minutes): 84.0%
- Changes in intracranial pressure ([1]; 1.0 mg/kg, 120 minutes): 81.3%
- Changes in intracranial pressure ([1]; 1.0 mg/kg, 180 minutes): 87.5%

Compound: COc1cc(NC(C)=O)ccc1OCC(O)CN1CCN(c2cccc(C(F)(F)F)c2)CC1 (centres unmarked) [Compound 6, 1-(4-acetamido-2-methoxyphenoxy)-3-[4-(3-trifluoromethylphenyl)piperazino]-2-propanol]
- Changes in intracranial pressure ([1]; 1.0 mg/kg, 40 minutes): 97.0%
- Changes in intracranial pressure ([1]; 1.0 mg/kg, 60 minutes): 95.0%
- Changes in intracranial pressure ([1]; 1.0 mg/kg, 120 minutes): 90.5%
- Changes in intracranial pressure ([1]; 1.0 mg/kg, 180 minutes): 92.8%

Compound: COc1ccc(Cc2nccc3cc(OC)c(OC)cc23)cc1OC [Papaverine, reference compound]
- Increase in common carotid blood flow ([8]; 10 μg/kg): 2.6 ± 0.2 Δml/minute
- Increase in common carotid blood flow ([8]; 25 μg/kg): 5.4 ± 0.6 Δml/minute
